Assay results taken from paper PMC9081768, “Spectroscopy, Structure, Biomacromolecular Interactions, and Antiproliferation Activity of a Fe(II) Complex With DPA-Bpy as Pentadentate Ligand” (Frontiers in Chemistry, 2022).

Target: T1, human serum albumin (HSA) (Homo sapiens, UniProt P02768)
T1 construct: gene ALB
Experiment: X-ray crystal structure at […] Å (seven molecules seen in the HSA Fe complex adduct)
Assay type: binding

T1 sequence (P02768 25-609): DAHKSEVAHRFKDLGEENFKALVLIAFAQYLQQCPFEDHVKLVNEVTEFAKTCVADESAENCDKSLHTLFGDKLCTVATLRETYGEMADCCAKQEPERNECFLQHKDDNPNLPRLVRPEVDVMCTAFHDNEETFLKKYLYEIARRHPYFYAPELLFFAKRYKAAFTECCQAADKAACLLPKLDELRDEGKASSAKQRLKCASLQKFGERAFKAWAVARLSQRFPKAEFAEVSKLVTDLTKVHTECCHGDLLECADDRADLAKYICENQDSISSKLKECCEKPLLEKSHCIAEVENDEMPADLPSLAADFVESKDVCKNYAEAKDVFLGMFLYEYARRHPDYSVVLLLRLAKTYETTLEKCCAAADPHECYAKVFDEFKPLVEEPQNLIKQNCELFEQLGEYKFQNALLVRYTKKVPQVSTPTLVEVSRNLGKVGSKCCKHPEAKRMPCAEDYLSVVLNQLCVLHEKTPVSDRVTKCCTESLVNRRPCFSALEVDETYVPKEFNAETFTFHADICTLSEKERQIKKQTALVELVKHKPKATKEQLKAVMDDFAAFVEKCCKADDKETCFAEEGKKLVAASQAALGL

## CCCCCCCCCCCCCCCC(=O)O [PA, palmitic acid]
  X-ray crystal structure at 2.4 Å (seven molecules seen in the HSA Fe complex add): seven palmitic acid (PA) molecules are present in the subdomains of I–III
